Test systems include SK-MEL-28 melanoma; A549 NSCLC; SW-620 colon; HT29 colon; LOX IMVI melanoma; UO-31 renal; NCI-H23 lung; RXF 393 renal; HCT-116 colon.
What all share (assay): NCI anticancer screen, dose series, 48 h

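Growth conditions: 96-well plates. Treatment: test compound, 48 hours, 5 concentrations. Analysis: linear interpolation between bracketing concentrations; unreached endpoints set to highest concentration. Abbreviation: GI50, concentration required for 50% inhibition of growth. TGI is the concentration that stops growth completely.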

For `[C-]#[O+].[Cl][Sn]([Cl])[Cl].[Cl][Sn]([Cl])[Cl].[Pt].c1ccc([PH+](c2ccccc2)c2ccccc2)cc1.c1ccc([PH+](c2ccccc2)c2ccccc2)cc1`, the GI50 in the experiment on SK-MEL-28 melanoma is 69.5 µM; in the experiment on A549 NSCLC it was 44.1 µM; in the experiment on SW-620 colon it was 35.1 µM; with HT29 colon, over 100 µM; with LOX IMVI melanoma, 14.2 µM; in the experiment with UO-31 renal, over 100 µM. The GI50 is 13.7 µM in the experiment with NCI-H23 lung, 1.57 µM in the experiment with RXF 393 renal and 43.2 µM in the experiment with HCT-116 colon. The TGI was over 100 µM in the experiment with SK-MEL-28 melanoma; over 100 µM in the experiment on A549 NSCLC; over 100 µM in the experiment on SW-620 colon; over 100 µM in the experiment on HT29 colon; 41 µM with LOX IMVI melanoma; over 100 µM in the experiment on UO-31 renal. The figures for the TGI with NCI-H23 lung, with RXF 393 renal and in the experiment on HCT-116 colon were 37 µM, 9.82 µM and over 100 µM, respectively.

Consider `NC(N)=NS(=O)(=O)c1ccc(Nc2c3ccccc3nc3c(C(=O)N4CCN(CCO)CC4)cccc23)cc1`, for which the TGI with SK-MEL-28 melanoma, with A549 NSCLC, in the experiment on SW-620 colon, with HT29 colon, with LOX IMVI melanoma and with UO-31 renal was over 100 µM each time. The TGI with NCI-H23 lung, with RXF 393 renal and in the experiment with HCT-116 colon was over 100 µM throughout.

Regarding `O=C(CC(=O)c1ccc([N+](=O)[O-])cc1)C(=O)Nc1nccs1`, the TGI with SK-MEL-28 melanoma, in the experiment on A549 NSCLC, with SW-620 colon, in the experiment with HT29 colon, with LOX IMVI melanoma and with UO-31 renal was over 100 µM in each case. Also, the TGI in the experiment on NCI-H23 lung, with RXF 393 renal and in the experiment with HCT-116 colon was over 100 µM each time.

Take `N=CCCN(CCC=N)c1ccc(/C=C2\CN(NC(=O)c3ccc(Cl)cc3)C(c3ccccc3)=N2)cc1`: the TGI with SK-MEL-28 melanoma was over 100 µM; in the experiment with A549 NSCLC it was over 100 µM; in the experiment with SW-620 colon, 30.6 µM; with HT29 colon it was over 100 µM; with LOX IMVI melanoma it was over 100 µM; in the experiment on UO-31 renal, over 100 µM. In addition, the TGI with NCI-H23 lung and in the experiment with HCT-116 colon was over 100 µM in each case.

Regarding `O=C1c2cccc3cc([N+](=O)[O-])cc(c23)C(=O)N1NC1=NCCN1`, the TGI with SK-MEL-28 melanoma, with A549 NSCLC, in the experiment with SW-620 colon, in the experiment on HT29 colon, with LOX IMVI melanoma and with UO-31 renal was over 100 µM throughout. The TGI in the experiment with NCI-H23 lung, in the experiment with RXF 393 renal and in the experiment with HCT-116 colon was over 100 µM each time.

On to `CC(=O)[CH-]C(=O)c1ccccc1.CC(=O)[CH-]C(=O)c1ccccc1.COc1cccc([O-])c1[O-].[Ti+4]`, for which the GI50 with SK-MEL-28 melanoma was 31 µM; with A549 NSCLC, over 100 µM; with SW-620 colon, 52.6 µM; in the experiment on HT29 colon, 64.5 µM; in the experiment with LOX IMVI melanoma it was 25 µM; in the experiment with UO-31 renal, over 100 µM. The GI50 is 30 µM in the experiment on RXF 393 renal and 32.1 µM with HCT-116 colon. Also, the TGI in the experiment with SK-MEL-28 melanoma, in the experiment with A549 NSCLC, in the experiment with SW-620 colon, with HT29 colon, with LOX IMVI melanoma and with UO-31 renal was over 100 µM in each case. For the same compound, the TGI with RXF 393 renal and in the experiment on HCT-116 colon was over 100 µM each time.

With `CN1C(OCc2ccccc2)c2c(ccc3c2OCO3)C2C=Cc3cc4c(cc3C21)OCO4` (stereo not given), the TGI was found to be 1.63 µM in the experiment on SK-MEL-28 melanoma; 1.35 µM in the experiment on SW-620 colon; 1.47 µM in the experiment on HT29 colon; 0.337 µM in the experiment on LOX IMVI melanoma; 2.59 µM in the experiment with UO-31 renal; 2.68 µM in the experiment with NCI-H23 lung. The TGI was found to be 2.31 µM in the experiment with RXF 393 renal and 1.44 µM in the experiment on HCT-116 colon.

Regarding `CC1(C)CCC[C@@]2(C)C1C[C@H](O)[C@@]1(C)O[C@@](C)([C@H](O)CO)CCC21` (stereo not given in full), the TGI in the experiment on SK-MEL-28 melanoma is over 100 µM; in the experiment with A549 NSCLC it was over 100 µM; with SW-620 colon, over 100 µM; in the experiment with HT29 colon it was 86 µM; with UO-31 renal, 85.3 µM; in the experiment with NCI-H23 lung it was over 100 µM. In addition, the TGI in the experiment with HCT-116 colon was over 100 µM.

For the compound `N#CCCN(CCC#N)C(=O)c1cccc(C(=O)N(CCC#N)CCC#N)c1`, the TGI in the experiment with A549 NSCLC is over 100 µM; in the experiment with SW-620 colon it was 26.5 µM; in the experiment with HT29 colon, 35.2 µM; in the experiment with LOX IMVI melanoma it was 30.3 µM; in the experiment with UO-31 renal, over 100 µM; with NCI-H23 lung, over 56 µM. The TGI is 9.76 µM in the experiment on RXF 393 renal and 99.4 µM in the experiment with HCT-116 colon.

With `CC1(C)OC(=O)[C@@](C)([C@H](O)c2ccccc2)O1`, the TGI in the experiment on A549 NSCLC, in the experiment on SW-620 colon, with HT29 colon, in the experiment with UO-31 renal, in the experiment with NCI-H23 lung and with RXF 393 renal was over 100 µM in each case. The compound further returned a TGI in the experiment with HCT-116 colon of over 100 µM.

With `Cc1ccc(NC(=O)CC/C(CC(=O)C(C)(C)C)=N/NC(=O)C(N)=O)cc1C`, the TGI with SK-MEL-28 melanoma, in the experiment on A549 NSCLC, in the experiment on SW-620 colon, in the experiment with HT29 colon, with UO-31 renal and with NCI-H23 lung was over 100 µM throughout. Besides, the TGI in the experiment with RXF 393 renal and in the experiment on HCT-116 colon was over 100 µM throughout.

Take `Nc1ncnc2c1ncn2C1OC(CSC(F)(F)F)C(O)C1O` (stereo not given): the TGI with SK-MEL-28 melanoma, in the experiment on A549 NSCLC, with SW-620 colon, in the experiment on HT29 colon, in the experiment on LOX IMVI melanoma and in the experiment on UO-31 renal was over 100 µM throughout. Moreover, the TGI with NCI-H23 lung and in the experiment with HCT-116 colon was over 100 µM each time.

As for `CC1(C)C(c2ccccc2)=NN(O)c2ccccc21`, the TGI with SK-MEL-28 melanoma, in the experiment with A549 NSCLC, in the experiment on SW-620 colon, with HT29 colon, in the experiment on NCI-H23 lung and in the experiment on RXF 393 renal was over 100 µM each time. The compound further gave a TGI in the experiment with HCT-116 colon of over 100 µM.

Regarding `N#CNC(N)=NCCO`, the TGI in the experiment with SK-MEL-28 melanoma was over 100 µM; in the experiment on A549 NSCLC it was over 100 µM; in the experiment with SW-620 colon, 35.9 µM; with HT29 colon, over 100 µM; with UO-31 renal, over 100 µM; in the experiment on NCI-H23 lung it was over 100 µM. In addition, the TGI in the experiment with RXF 393 renal was 68.3 µM; in the experiment on HCT-116 colon, over 100 µM.

Source of the values: PubChem BioAssay (NCI).
